Source: doi:10.1101/2025.01.28.635346v1 (bioRxiv, 2025)
Bridge positions count the residues as written; N and C are the ends. Side chains are listed from the residue outwards. Peptide text beside a SMILES is read from it. * marks the point of attachment. Butanoyl(4-(4-I-phenyl)) = O=C(CCCc1ccc(I)cc1)*; PEG2 = NCCOCCOCCC(=O)O

What was measured:
OPRM1 = OPRM1 (Homo sapiens, UniProt P35372); assay: Safetyscan47 GPCR cAMP, Agonist; format: cell-based; settings: for Emax: OPRM1, read-out: Max Response
OPRM1, sequence (P35372 whole entry): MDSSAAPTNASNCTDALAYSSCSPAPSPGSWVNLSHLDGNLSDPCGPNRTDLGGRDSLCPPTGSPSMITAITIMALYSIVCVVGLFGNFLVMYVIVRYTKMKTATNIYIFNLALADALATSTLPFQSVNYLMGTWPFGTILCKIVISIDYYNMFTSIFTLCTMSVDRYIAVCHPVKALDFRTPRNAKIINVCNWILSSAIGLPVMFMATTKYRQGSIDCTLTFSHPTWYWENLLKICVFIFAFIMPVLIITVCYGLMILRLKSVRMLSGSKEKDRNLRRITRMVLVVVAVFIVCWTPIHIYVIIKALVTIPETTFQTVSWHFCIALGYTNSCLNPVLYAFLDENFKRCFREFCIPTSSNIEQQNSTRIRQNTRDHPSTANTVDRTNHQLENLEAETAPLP

[1] = Solubility and aggregation; format: physicochemical
DRD2S [2] = biological target: T1, DRD2S (Homo sapiens, UniProt P14416); assay: Safetyscan47 GPCR cAMP, Antagonist; format: cell-based; settings: for Emax: read-out: Max Response
T1 sequence (P14416 1-414 isoform P14416-2): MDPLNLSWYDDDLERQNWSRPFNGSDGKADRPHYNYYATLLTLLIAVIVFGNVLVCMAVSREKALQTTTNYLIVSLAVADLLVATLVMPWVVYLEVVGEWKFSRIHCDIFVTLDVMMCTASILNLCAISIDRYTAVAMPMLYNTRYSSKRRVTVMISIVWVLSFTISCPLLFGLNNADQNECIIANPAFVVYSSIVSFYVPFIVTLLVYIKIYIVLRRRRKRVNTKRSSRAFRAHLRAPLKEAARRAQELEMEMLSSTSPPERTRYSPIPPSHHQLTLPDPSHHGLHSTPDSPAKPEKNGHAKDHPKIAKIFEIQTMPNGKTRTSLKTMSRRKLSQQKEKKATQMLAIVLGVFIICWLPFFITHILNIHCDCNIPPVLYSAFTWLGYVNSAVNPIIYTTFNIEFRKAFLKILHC

[3] = Tissue distribution in female Balb/c mice; format: in vivo, mouse; settings: for Brain concentration / Colon concentration / Kidneys concentration / Liver concentration / Mammary concentration / Ovaries concentration / Plasma Concentration / Lungs concentration: Balb/c mice
DRD2S [4] = biological target: T1, DRD2S; assay: Safetyscan47 GPCR cAMP, Agonist; format: cell-based; settings: for Emax: read-out: Max Response
LCK = LCK (Homo sapiens, UniProt P06239); assay: Safetyscan47 Kinases Binding, Inhibitor; settings: for Emax: read-out: Max Response
LCK, sequence (P06239 whole entry): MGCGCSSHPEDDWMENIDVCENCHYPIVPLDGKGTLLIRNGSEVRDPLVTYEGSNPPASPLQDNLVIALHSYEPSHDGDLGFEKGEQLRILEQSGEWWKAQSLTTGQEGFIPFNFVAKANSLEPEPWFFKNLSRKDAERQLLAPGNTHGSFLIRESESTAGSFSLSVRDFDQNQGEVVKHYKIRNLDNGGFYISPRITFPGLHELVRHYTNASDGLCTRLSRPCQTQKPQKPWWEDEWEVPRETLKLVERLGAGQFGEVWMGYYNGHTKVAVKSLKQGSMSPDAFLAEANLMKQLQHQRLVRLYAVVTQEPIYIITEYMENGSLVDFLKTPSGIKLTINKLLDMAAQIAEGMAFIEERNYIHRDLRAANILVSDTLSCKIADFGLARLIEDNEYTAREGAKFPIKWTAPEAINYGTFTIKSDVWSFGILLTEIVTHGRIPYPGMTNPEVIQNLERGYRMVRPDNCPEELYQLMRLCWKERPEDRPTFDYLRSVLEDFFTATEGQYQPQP

HTR1A = biological target: T2, HTR1A (Homo sapiens, UniProt P08908); assay: Safetyscan47 GPCR cAMP, Antagonist; format: cell-based; settings: for Emax: read-out: Max Response
T2 sequence (P08908 1-422): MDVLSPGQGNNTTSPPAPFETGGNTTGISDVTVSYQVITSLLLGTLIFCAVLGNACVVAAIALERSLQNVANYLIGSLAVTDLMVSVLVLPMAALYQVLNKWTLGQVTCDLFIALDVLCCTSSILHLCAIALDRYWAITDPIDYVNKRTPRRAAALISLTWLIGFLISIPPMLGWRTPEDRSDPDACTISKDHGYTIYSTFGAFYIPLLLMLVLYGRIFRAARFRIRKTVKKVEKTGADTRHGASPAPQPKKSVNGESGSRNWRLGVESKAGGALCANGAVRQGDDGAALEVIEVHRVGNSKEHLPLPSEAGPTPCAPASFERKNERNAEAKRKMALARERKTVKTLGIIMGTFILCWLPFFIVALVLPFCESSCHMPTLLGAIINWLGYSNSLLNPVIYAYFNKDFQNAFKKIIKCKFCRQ

ADRB2 = ADRB2 (Homo sapiens, UniProt P07550); assay: Safetyscan47 GPCR cAMP, Agonist; format: cell-based; settings: for Emax: read-out: Max Response
ADRB2, sequence (P07550 whole entry): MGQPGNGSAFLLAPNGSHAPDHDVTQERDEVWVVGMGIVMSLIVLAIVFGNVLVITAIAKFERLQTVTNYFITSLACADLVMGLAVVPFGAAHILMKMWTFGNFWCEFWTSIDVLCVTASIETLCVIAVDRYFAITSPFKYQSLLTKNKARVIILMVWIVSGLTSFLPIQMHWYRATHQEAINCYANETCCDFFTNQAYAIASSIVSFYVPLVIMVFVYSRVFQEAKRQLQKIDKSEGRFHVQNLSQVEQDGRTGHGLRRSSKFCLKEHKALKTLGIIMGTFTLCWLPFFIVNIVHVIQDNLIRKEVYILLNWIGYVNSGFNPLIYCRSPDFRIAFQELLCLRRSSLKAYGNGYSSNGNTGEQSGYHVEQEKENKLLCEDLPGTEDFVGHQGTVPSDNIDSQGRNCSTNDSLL

ADRA1A = biological target: T3, ADRA1A (Homo sapiens, UniProt P35348); assay: Safetyscan47 GPCR Calcium Flux, Antagonist; format: cell-based; settings: for Emax: read-out: Max Response
T3 sequence (P35348 1-466): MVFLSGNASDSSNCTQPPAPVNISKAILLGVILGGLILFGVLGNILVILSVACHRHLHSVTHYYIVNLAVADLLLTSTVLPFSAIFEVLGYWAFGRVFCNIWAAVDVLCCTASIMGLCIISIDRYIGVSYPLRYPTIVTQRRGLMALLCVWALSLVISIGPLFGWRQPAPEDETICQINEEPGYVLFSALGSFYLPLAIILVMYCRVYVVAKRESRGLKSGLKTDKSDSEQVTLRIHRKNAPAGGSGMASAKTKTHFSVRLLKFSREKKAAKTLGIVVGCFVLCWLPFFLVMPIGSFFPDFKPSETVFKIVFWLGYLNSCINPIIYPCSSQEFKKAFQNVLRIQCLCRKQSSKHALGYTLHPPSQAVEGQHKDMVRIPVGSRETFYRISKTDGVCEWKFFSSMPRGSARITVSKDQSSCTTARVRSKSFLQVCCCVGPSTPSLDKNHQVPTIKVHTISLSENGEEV

[5] = 3 hr, Mouse 1 (individual animal)
[6] = 3 hr, Mouse 2 (individual animal)
[7] = 3 hr, Mouse 3 (individual animal)
[8] = 8 hr, Mouse 1 (individual animal)
[9] = 8 hr, Mouse 2 (individual animal)
[10] = 8 hr, Mouse 3 (individual animal)
[11] = female, Balb/c, mouse, brain, ip, 30 mg/kg
[12] = female, Balb/c, mouse, breast tissue including mammary gland, ip, 30 mg/kg
[13] = female, Balb/c, mouse, colon, ip, 30 mg/kg
[14] = female, Balb/c, mouse, kidney, ip, 30 mg/kg
[15] = female, Balb/c, mouse, kidneys, ip, 30 mg/kg
[16] = female, Balb/c, mouse, liver, ip, 30 mg/kg
[17] = female, Balb/c, mouse, lungs, ip, 30 mg/kg
[18] = female, Balb/c, mouse, ovaries, ip, 30 mg/kg
[19] = female, Balb/c, mouse, plasma, ip, 30 mg/kg

Q: With `CC[C@H](C)[C@H](NC(=O)[C@H](CC(C)C)NC(=O)[C@H](CC(=O)O)NC(=O)CNC(=O)[C@H](CCCNC(=N)N)NC(=O)[C@@H](NC(=O)[C@H](Cc1ccccc1)NC(=O)[C@H](Cc1ccc(O)cc1)NC(=O)[C@@H]1CCC(=O)NCC(=O)NCC(=O)N[C@@H](CCCNC(=N)N)C(=O)NCC(=O)N[C@@H](Cc2c[nH]cn2)C(=O)N[C@@H](C(C)C)C(=O)N2CCC[C@H]2C(=O)N1)C(C)C)C(=O)N[C@@H](CO)C(=O)N[C@@H](Cc1ccccc1)C(=O)N[C@@H](Cc1ccc(O)cc1)C(=O)N[C@@H](CCCCNC(=O)CCOCCOCCNC(=O)CCCc1ccc(I)cc1)C(=O)O` [lassotide 47] (GGRGHVPEYFVRGDLISFYK([PEG2-Butanoyl(4-(4-I-phenyl))])-OH; lactam N-8) as the compound, how does the EC50 (OPRM1) read?
A: > 45 µM

Q: What about the Emax (OPRM1) of the same compound?
A: 18.4%

Q: And the “Solubility in DMSO” value ([1]; DMSO (text: also formulations containing 10-20% DMSO and PEG))?
A: > 200 mg/mL

Q: What about the solubility ([1]; acetate buffer, pH 4.5, aqueous buffer) of the same compound?
A: ≥ 30 mg/mL

Q: And the IC50 (DRD2S [2])?
A: > 45 µM

Q: And the Emax (DRD2S [2])?
A: 0%

Q: What about the Brain concentration [3, 5] of the same compound?
A: 985 ng/g

Q: And the Colon concentration [3, 5]?
A: 6100 ng/g

Q: What about the Kidneys concentration [3, 5] of the same compound?
A: 11600 ng/g

Q: And the Liver concentration [3, 5]?
A: 4430 ng/g

Q: And the Mammary concentration [3, 5]?
A: 21700 ng/g

Q: And the Ovaries concentration [3, 5]?
A: 27800 ng/g

Q: And the Plasma Concentration [3, 5]?
A: 192 µg/mL

Q: And the Brain concentration [3, 6]?
A: 968 ng/g

Q: And the Colon concentration [3, 6]?
A: 6010 ng/g

Q: What about the Kidneys concentration [3, 6] of the same compound?
A: 11500 ng/g

Q: And the Liver concentration [3, 6]?
A: 4000 ng/g

Q: And the Lungs concentration [3, 6]?
A: 32400 ng/g

Q: And the Mammary concentration [3, 6]?
A: 18900 ng/g

Q: And the Ovaries concentration [3, 6]?
A: 25700 ng/g

Q: What about the Plasma Concentration [3, 6] of the same compound?
A: 168 µg/mL

Q: What about the Brain concentration [3, 7] of the same compound?
A: 756 ng/g

Q: And the Colon concentration [3, 7]?
A: 4370 ng/g

Q: And the Kidneys concentration [3, 7]?
A: 9960 ng/g

Q: And the Liver concentration [3, 7]?
A: 3250 ng/g

Q: And the Lungs concentration [3, 7]?
A: 36100 ng/g

Q: What about the Mammary concentration [3, 7] of the same compound?
A: 14800 ng/g

Q: And the Ovaries concentration [3, 7]?
A: 20800 ng/g

Q: And the Plasma Concentration [3, 7]?
A: 160 µg/mL

Q: What about the Brain concentration [3, 8] of the same compound?
A: 974 ng/g

Q: And the Colon concentration [3, 8]?
A: 2940 ng/g

Q: And the Kidneys concentration [3, 8]?
A: 12200 ng/g

Q: And the Liver concentration [3, 8]?
A: 4440 ng/g

Q: And the Lungs concentration [3, 8]?
A: 41500 ng/g

Q: What about the Mammary concentration [3, 8] of the same compound?
A: 12200 ng/g

Q: What about the Ovaries concentration [3, 8] of the same compound?
A: 18700 ng/g

Q: And the Plasma Concentration [3, 8]?
A: 117 µg/mL

Q: And the Brain concentration [3, 9]?
A: 617 ng/g

Q: What about the Colon concentration [3, 9] of the same compound?
A: 2460 ng/g

Q: And the Kidneys concentration [3, 9]?
A: 8480 ng/g

Q: What about the Liver concentration [3, 9] of the same compound?
A: 2430 ng/g

Q: And the Lungs concentration [3, 9]?
A: 31300 ng/g

Q: And the Mammary concentration [3, 9]?
A: 8100 ng/g

Q: What about the Ovaries concentration [3, 9] of the same compound?
A: 14700 ng/g

Q: What about the Plasma Concentration [3, 9] of the same compound?
A: 106 µg/mL

Q: What about the Brain concentration [3, 10] of the same compound?
A: 406 ng/g

Q: What about the Colon concentration [3, 10] of the same compound?
A: 2190 ng/g

Q: What about the Kidneys concentration [3, 10] of the same compound?
A: 6640 ng/g

Q: And the Liver concentration [3, 10]?
A: 2230 ng/g

Q: What about the Lungs concentration [3, 10] of the same compound?
A: 16000 ng/g

Q: And the Mammary concentration [3, 10]?
A: 5390 ng/g

Q: What about the Ovaries concentration [3, 10] of the same compound?
A: 8870 ng/g

Q: What about the Plasma Concentration [3, 10] of the same compound?
A: 77 µg/mL

Q: What about the tissue level at time at 3 h [3, 11] of the same compound?
A: 903 ng/g

Q: And the tissue level at time at 8 h [3, 11]?
A: 666 ng/g

Q: And the tissue level at time at 3 h [3, 12]?
A: 18500 ng/g

Q: And the tissue level at time at 8 h [3, 12]?
A: 8560 ng/g

Q: And the tissue level at time at 3 h [3, 13]?
A: 5490 ng/g

Q: What about the tissue level at time at 8 h [3, 13] of the same compound?
A: 2530 ng/g

Q: And the tissue level at time at 3 h [3, 14]?
A: 11000 ng/g

Q: What about the tissue level at time at 8 h [3, 14] of the same compound?
A: 9110 ng/g

Q: And the tissue level at time at 3 h [3, 15]?
A: 11000 ng/g

Q: And the tissue level at time at 8 h [3, 15]?
A: 9110 ng/g

Q: What about the tissue level at time at 3 h [3, 16] of the same compound?
A: 3890 ng/g

Q: What about the tissue level at time at 8 h [3, 16] of the same compound?
A: 3030 ng/g

Q: And the tissue level at time at 3 h [3, 17]?
A: 57200 ng/g

Q: What about the tissue level at time at 8 h [3, 17] of the same compound?
A: 29600 ng/g

Q: And the tissue level at time at 3 h [3, 18]?
A: 24800 ng/g

Q: What about the tissue level at time at 8 h [3, 18] of the same compound?
A: 14100 ng/g

Q: What about the level at 3 h [3, 19] of the same compound?
A: 173 µg/mL

Q: What about the level at 8 h [3, 19] of the same compound?
A: 100 µg/mL

Q: And the EC50 (DRD2S [4])?
A: > 45 µM

Q: And the Emax (DRD2S [4])?
A: 24.1%

Q: And the IC50 (LCK)?
A: > 45 µM

Q: And the Emax (LCK)?
A: 0%

Q: And the IC50 (HTR1A)?
A: > 45 µM

Q: What about the Emax (HTR1A) of the same compound?
A: 0%

Q: What about the EC50 (ADRB2) of the same compound?
A: > 45 µM

Q: And the Emax (ADRB2)?
A: 0%

Q: And the IC50 (ADRA1A)?
A: > 45 µM

Q: What about the Emax (ADRA1A) of the same compound?
A: 2.58%

Q: For `CC[C@H](C)[C@H](NC(=O)[C@H](CC(C)C)NC(=O)[C@H](CC(=O)O)NC(=O)CNC(=O)[C@H](CCCNC(=N)N)NC(=O)[C@@H](NC(=O)[C@H](Cc1ccccc1)NC(=O)[C@H](Cc1ccc(O)cc1)NC(=O)[C@@H]1CCC(=O)NCC(=O)NCC(=O)N[C@@H](CCCNC(=N)N)C(=O)NCC(=O)N[C@@H](Cc2c[nH]cn2)C(=O)N[C@@H](C(C)C)C(=O)N2CCC[C@H]2C(=O)N1)C(C)C)C(=O)N[C@@H](CO)C(=O)N[C@@H](Cc1ccccc1)C(=O)N[C@@H](Cc1ccc(O)cc1)C(=O)N[C@@H](CCCCN)C(=O)O` [lassotide 36] (GGRGHVPEYFVRGDLISFYK-OH; lactam N-8), which EC50 (OPRM1) is on record?
A: > 45 µM

Q: And the Emax (OPRM1)?
A: 3.7%

Q: And the IC50 (DRD2S [2])?
A: > 45 µM

Q: What about the Emax (DRD2S [2]) of the same compound?
A: 0%

Q: What about the EC50 (DRD2S [4]) of the same compound?
A: > 45 µM

Q: What about the Emax (DRD2S [4]) of the same compound?
A: 0%

Q: And the IC50 (LCK)?
A: > 45 µM

Q: What about the Emax (LCK) of the same compound?
A: 0%

Q: What about the IC50 (HTR1A) of the same compound?
A: > 45 µM

Q: And the Emax (HTR1A)?
A: 0%

Q: What about the EC50 (ADRB2) of the same compound?
A: > 45 µM

Q: And the Emax (ADRB2)?
A: 0%

Q: What about the IC50 (ADRA1A) of the same compound?
A: > 45 µM

Q: What about the Emax (ADRA1A) of the same compound?
A: 9.9%
